IC50 and EC50 data for 20 molecules are collected here from patent US20120225062A1 (priority 2011, published 2012).

One assay addresses Pim 1 (Homo sapiens, UniProt P11309). The assay is described as follows: Pim 1 AlphaScreen assay (high ATP).
The target in a further assay is Pim 3 (Homo sapiens, UniProt Q86V86). The assay is described as follows: Pim 3 AlphaScreen assay (high ATP). On the technique in general: Alpha assays give light when donor and acceptor beads are brought close together.
Assay [1] has as its system KMS11 (human myeloma cell line). Briefly: Cell Proliferation Assay (CellTiter-Glo, 3 days). The note with it: KMS-11, 72 h, KMS11-luc cells. It is filed as cell-based. The method in brief: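 KMS11 myeloma cells, 2000 per well in IMDM with 10% FBS, exposed to compound for 3 days at 37° C. Viability read by CellTiter-Glo luminescence; EC50 derived.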
In general terms: Cellular ATP, detected with luciferase, serves as a proxy for viable cell number.

The next assay concerns the target Pim 2 (Homo sapiens, UniProt Q9P1W9). The assay is described as follows: Pim 2 AlphaScreen assay (high ATP).

Chain of Pim 2 (Q9P1W9 whole entry): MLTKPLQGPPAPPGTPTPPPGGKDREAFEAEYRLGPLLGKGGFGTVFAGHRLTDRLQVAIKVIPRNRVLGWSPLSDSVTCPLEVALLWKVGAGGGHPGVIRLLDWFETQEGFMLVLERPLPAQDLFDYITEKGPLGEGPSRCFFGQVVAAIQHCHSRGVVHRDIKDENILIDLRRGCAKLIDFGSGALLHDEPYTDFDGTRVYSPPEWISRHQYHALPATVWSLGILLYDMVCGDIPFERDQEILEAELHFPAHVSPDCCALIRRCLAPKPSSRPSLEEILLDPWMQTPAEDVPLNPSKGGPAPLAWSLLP
Chain of Pim 1 (P11309 whole entry): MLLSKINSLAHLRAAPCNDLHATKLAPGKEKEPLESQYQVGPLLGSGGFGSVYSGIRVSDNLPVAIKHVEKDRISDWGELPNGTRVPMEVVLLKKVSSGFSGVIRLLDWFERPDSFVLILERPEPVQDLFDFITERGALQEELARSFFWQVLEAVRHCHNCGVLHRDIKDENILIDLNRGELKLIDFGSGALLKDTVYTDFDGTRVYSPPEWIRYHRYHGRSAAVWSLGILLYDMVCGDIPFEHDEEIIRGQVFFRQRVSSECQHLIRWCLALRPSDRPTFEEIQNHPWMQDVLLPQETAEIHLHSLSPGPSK
Experimental for Pim 3: The activity of Pim 1, Pim 2, & Pim 3 is measured using a homogeneous bead based system quantifying the amount of phosphorylated peptide substrate resulting from kinase-catalyzed phosphoryl transfer to a peptide substrate. Compounds to be tested are dissolved in 100% DMSO and directly distributed to a white 384-well plate at 0.25 μl per well. […] This is followed by the addition of 5 μl/well of Pim 1, Pim 2 or Pim 3 kinase in assay buffer (concentrations described below). Final assay concentrations (described below) are in 2.5% DMSO. The reactions are performed for ˜2 hours, then stopped by the addition of 10 μl of 0.75 μg/ml anti-phospho Ser/Thr antibody (Cell Signaling), 10 μg/ml Protein A AlphaScreen beads (Perkin Elmer), and 10 μg/ml streptavidin coated AlphaScreen beads in stop/detection buffer (50 mM EDTA, 95 mM Tris, pH=7.5, 0.01% Tween-20). The stopped reactions are incubated overnight in the dark. The phosphorylated peptide is detected via an oxygen anion initiated chemiluminescence/fluorescence cascade using the Envision plate reader (Perkin Elmer).

One may read the IC50 as the point on the concentration scale where inhibition reaches its midpoint. As a reminder, the EC50 is the concentration needed to bring the measured effect to its halfway point. Low values mean a more potent agent, high ones a less potent agent. With `C[C@H]1C[C@@H](c2ccncc2NC(=O)c2ccc(F)c(-c3c(F)cc(OC4CCOC4)cc3F)n2)C[C@@H](N)[C@@H]1O` (stereo in doubt) [Example 69, N-(4-((1R,3R,4R,5S)-3-amino-4-hydroxy-5-methylcyclohexyl)pyridin-3-yl)-6-(2,6-difluoro-4-((R)-tetrahydrofuran-3-yloxy)phenyl)-5-fluoropicolinamide], the figures for the IC50 at Pim 1, against Pim 3 and at Pim 2 were 0.03 nM, 0.89 nM and 2.38 nM, respectively. In addition, the concentration giving a half-maximal response (EC50) in assay [1] turned out to be 60 nM.

With `C[C@H]1C[C@@H](c2ccncc2NC(=O)c2ccc(F)c(-c3c(F)cc(OC4CCOC4)cc3F)n2)C[C@@H](N)[C@@H]1O` (stereo in doubt) [Example 70, N-(4-((1R,3R,4R,5S)-3-amino-4-hydroxy-5-methylcyclohexyl)pyridin-3-yl)-6-(2,6-difluoro-4-((S)-tetrahydrofuran-3-yloxy)phenyl)-5-fluoropicolinamide], the IC50 at Pim 1 is 0.04 nM; on Pim 3, 1.15 nM; against Pim 2, 4.01 nM. This molecule also came in with an EC50 in assay [1] of 68 nM.

Regarding `C[C@@H]1C[C@H](N)C[C@H](c2ccncc2NC(=O)c2ccc(F)c(-c3c(F)cc(OC4CCOC4)cc3F)n2)C1` (stereo in doubt) [Example 71, N-(4-((1R,3S,5S)-3-amino-5-methylcyclohexyl)pyridin-3-yl)-6-(2,6-difluoro-4-((R)-tetrahydrofuran-3-yloxy)phenyl)-5-fluoropicolinamide], the IC50 at Pim 1 was found to be 0.02 nM; at Pim 3 it was 0.97 nM; at Pim 2 it was 2.21 nM. Besides, in assay [1], the EC50 came to 48 nM.

`C[C@@H]1C[C@H](N)C[C@H](c2ccncc2NC(=O)c2ccc(F)c(-c3c(F)cc(OC[C@@H](O)CO)cc3F)n2)C1` [Example 3, N-(4-((1R,3S,5S)-3-amino-5-methylcyclohexyl)pyridin-3-yl)-6-(4-((S)-2,3-dihydroxypropoxy)-2,6-difluorophenyl)-5-fluoropicolinamide]: the half-inhibitory concentration (IC50) against Pim 1 came out at 0.03 nM; at Pim 3 it was 0.55 nM; on Pim 2 it was 1.89 nM. This molecule came in with an EC50 in assay [1] of 53 nM.

For `C[C@@H]1C[C@H](N)C[C@H](c2ccncc2NC(=O)c2ccc(F)c(-c3c(F)ccc(OC[C@H](O)CO)c3F)n2)C1` [Example 9, N-(4-((1R,3S,5S)-3-amino-5-methylcyclohexyl)pyridin-3-yl)-6-(3-((R)-2,3-dihydroxypropoxy)-2,6-difluorophenyl)-5-fluoropicolinamide], the 50% inhibitory concentration (IC50) on Pim 1 was 0.04 nM; on Pim 3, 1.09 nM; on Pim 2, 3.97 nM. The molecule also gave a concentration for a half-maximal effect (EC50) in assay [1] of 72 nM.

With `C[C@@H]1C[C@H](N)C[C@H](c2ccncc2NC(=O)c2ccc(F)c(-c3c(F)ccc(OC[C@@H](O)CO)c3F)n2)C1` [Example 10, N-(4-((1R,3S,5S)-3-amino-5-methylcyclohexyl)pyridin-3-yl)-6-(3-((S)-2,3-dihydroxypropoxy)-2,6-difluorophenyl)-5-fluoropicolinamide], the half-inhibitory concentration (IC50) against Pim 1 stood at 0.03 nM; at Pim 3, 0.95 nM; against Pim 2, 4.96 nM. Besides, the EC50 in assay [1] came to 126 nM.

In the case of `COCCOc1cc(F)c(-c2nc(C(=O)Nc3cnccc3[C@@H]3C[C@H](C)C[C@H](N)C3)ccc2F)c(F)c1` [Example 12, N-(4-((1R,3S,5S)-3-amino-5-methylcyclohexyl)pyridin-3-yl)-6-(2,6-difluoro-4-(2-methoxyethoxy)phenyl)-5-fluoropicolinamide], the concentration for half-maximal inhibition (IC50) is 0.04 nM at Pim 1, 1.39 nM on Pim 3 and 2.91 nM on Pim 2. This molecule yielded an EC50 in assay [1] of 120 nM.

Turning to `COCCOc1ccc(F)c(-c2nc(C(=O)Nc3cnccc3[C@@H]3C[C@H](C)C[C@H](N)C3)ccc2F)c1F` [Example 13, N-(4-((1R,3S,5S)-3-amino-5-methylcyclohexyl)pyridin-3-yl)-6-(2,6-difluoro-3-(2-methoxyethoxy)phenyl)-5-fluoropicolinamide], the IC50 was determined as 0.04 nM against Pim 1, 1.27 nM at Pim 3 and 9.36 nM against Pim 2. In assay [1], this molecule had an EC50 of 187 nM.

With `COc1cc(F)c(-c2nc(C(=O)Nc3cnccc3N3C[C@@H](N)[C@H](O)[C@@H](C)C3)ccc2F)c(F)c1` [Example 15, N-(4-((3R,4R,5S)-3-amino-4-hydroxy-5-methylpiperidin-1-yl)pyridin-3-yl)-6-(2,6-difluoro-4-methoxyphenyl)-5-fluoropicolinamide], the 50% inhibitory concentration (IC50) is 0.02 nM on Pim 1, 0.35 nM at Pim 3 and 1.14 nM at Pim 2. This molecule gave an EC50 in assay [1] of 21 nM.

As for `C[C@H]1CN(c2ccncc2NC(=O)c2ccc(F)c(-c3c(F)cc(S(C)(=O)=O)cc3F)n2)C[C@@H](N)[C@@H]1O` [Example 16, N-(4-((3R,4R,5S)-3-amino-4-hydroxy-5-methylpiperidin-1-yl)pyridin-3-yl)-6-(2,6-difluoro-4-(methylsulfonyl)phenyl)-5-fluoropicolinamide], the half-maximal inhibitory concentration (IC50) on Pim 1 is 0.08 nM; at Pim 3, 2.66 nM; against Pim 2, 2.07 nM. Besides, the concentration giving a half-maximal response (EC50) in assay [1] was 37 nM.

For `COCCOc1ccc(F)c(-c2nc(C(=O)Nc3cnccc3N3C[C@@H](N)[C@H](O)[C@@H](C)C3)ccc2F)c1F` [Example 17, N-(4-((3R,4R,5S)-3-amino-4-hydroxy-5-methylpiperidin-1-yl)pyridin-3-yl)-6-(2,6-difluoro-3-(2-methoxyethoxy)phenyl)-5-fluoropicolinamide], the IC50 on Pim 1 is 0.03 nM; on Pim 3 it was 0.35 nM; against Pim 2, 1.92 nM. Besides, the 50% effective concentration (EC50) in assay [1] was 13 nM.

Take `COCCOc1ccc(F)c(-c2nc(C(=O)Nc3cnccc3[C@H]3C[C@@H](N)[C@H](O)[C@@H](C)C3)ccc2F)c1F` [Example 18, N-(4-((1R,3R,4R,5S)-3-amino-4-hydroxy-5-methylcyclohexyl)pyridin-3-yl)-6-(2,6-difluoro-3-(2-methoxyethoxy)phenyl)-5-fluoropicolinamide]: the IC50 was 0.13 nM against Pim 1, 2.93 nM on Pim 3 and 32.3 nM against Pim 2. Besides, the EC50 in assay [1] came to 201 nM.

In the case of `CCOc1cc(F)c(-c2nc(C(=O)Nc3cnccc3N3C[C@@H](N)[C@H](O)[C@@H](C)C3)ccc2F)c(F)c1` [Example 20, N-(4-((3R,4R,5S)-3-amino-4-hydroxy-5-methylpiperidin-1-yl)pyridin-3-yl)-6-(4-ethoxy-2,6-difluorophenyl)-5-fluoropicolinamide], the values for the IC50 at Pim 1, at Pim 3 and against Pim 2 were 0.02 nM, 0.29 nM and 0.97 nM, respectively. In assay [1], this molecule yielded a concentration giving a half-maximal response (EC50) of 7 nM.

On to `C[C@H]1CN(c2ccncc2NC(=O)c2ccc(F)c(-c3c(F)cc(OCCO)cc3F)n2)C[C@@H](N)[C@@H]1O` [Example 21, N-(4-((3R,4R,5S)-3-amino-4-hydroxy-5-methylpiperidin-1-yl)pyridin-3-yl)-6-(2,6-difluoro-4-(2-hydroxyethoxy)phenyl)-5-fluoropicolinamide], for which the 50% inhibitory concentration (IC50) was found to be 0.02 nM on Pim 1, 0.34 nM against Pim 3 and 1.19 nM against Pim 2. In addition, in assay [1], a half-maximal effect (EC50) was put at 13 nM.

For `C[C@H]1CN(c2ccncc2NC(=O)c2ccc(F)c(-c3c(F)cc(OC4CCOCC4)cc3F)n2)C[C@@H](N)[C@@H]1O` [Example 116, N-(4-((3R,4R,5S)-3-amino-4-hydroxy-5-methylpiperidin-1-yl)pyridin-3-yl)-6-(2,6-difluoro-4-(tetrahydro-2H-pyran-4-yloxy)phenyl)-5-fluoropicolinamide], the concentration for half-maximal inhibition (IC50) on Pim 1 turned out to be 0.01 nM; at Pim 3 it was 0.2 nM; against Pim 2, 0.58 nM.

In the case of `C[C@H]1CN(c2ccncc2NC(=O)c2ccc(F)c(-c3c(F)cc(OC4COC4)cc3F)n2)C[C@@H](N)[C@@H]1O` [Example 117, N-(4-((3R,4R,5S)-3-amino-4-hydroxy-5-methylpiperidin-1-yl)pyridin-3-yl)-6-(2,6-difluoro-4-(oxetan-3-yloxy)phenyl)-5-fluoropicolinamide], the concentration for half-maximal inhibition (IC50) was 0.01 nM against Pim 1, 0.16 nM on Pim 3 and 0.65 nM against Pim 2.

Turning to `COCCOc1cc(F)c(-c2nc(C(=O)Nc3cnccc3[C@@H]3C[C@H](C)C[C@H](N)C3)c(N)cc2F)c(F)c1` [Example 118, 3-amino-N-(4-((1R,3S,5S)-3-amino-5-methylcyclohexyl)pyridin-3-yl)-6-(2,6-difluoro-4-(2-methoxyethoxy)phenyl)-5-fluoropicolinamide], the concentration for half-maximal inhibition (IC50) against Pim 1 came to 0.01 nM; against Pim 3 it was 0.29 nM; against Pim 2 it was 1.08 nM.

On to `CCOc1ccc(F)c(-c2nc(C(=O)Nc3cnccc3[C@@H]3C[C@H](C)C[C@H](N)C3)ccc2F)c1F` [Example 213, N-(4-((1R,3S,5S)-3-amino-5-methylcyclohexyl)pyridin-3-yl)-6-(3-ethoxy-2,6-difluorophenyl)-5-fluoropicolinamide], for which the half-inhibitory concentration (IC50) was determined as 0.06 nM against Pim 1, 1.45 nM on Pim 3 and 8.92 nM against Pim 2.

Take `CCOc1cc(F)c(-c2nc(C(=O)Nc3cnccc3[C@@H]3C[C@H](C)C[C@H](N)C3)ccc2F)c(F)c1` [Example 225, N-(4-((1R,3S,5S)-3-amino-5-methylcyclohexyl)pyridin-3-yl)-6-(4-ethoxy-2,6-difluorophenyl)-5-fluoropicolinamide]: the figures for the concentration for half-maximal inhibition (IC50) against Pim 1, on Pim 3 and at Pim 2 were 0.02 nM, 0.51 nM and 1.78 nM, respectively.

`CCOc1cc(F)c(-c2nc(C(=O)Nc3cnccc3[C@H]3C[C@@H](N)[C@H](O)[C@@H](C)C3)ccc2F)c(F)c1` [Example 226, N-(4-((1R,3R,4R,5S)-3-amino-4-hydroxy-5-methylcyclohexyl)pyridin-3-yl)-6-(4-ethoxy-2,6-difluorophenyl)-5-fluoropicolinamide]: the results for the IC50 on Pim 1, on Pim 3 and against Pim 2 were 0.04 nM, 0.75 nM and 3.51 nM, respectively.
